The supplement of paper PMC11208160

assay: recombinant UMI read abundance after kanamycin selection (control-corrected) (log10(CPM+1)); higher = more efficient recombination; extreme values may be limits of the assay; sequences stand for … in AGTGCAGAGAAAATCGGCCAGTTTTCTCTGCCTGCAGTCCGCATGCCGTGGGACCCCTTGGGTTCTAACCTGTTGCCTAGATTTATGCAGCGGACTGCCTTTCTCCCAAAGTGATAAACCGG…AGGTTGGTTTCACT; site = the 11-nt donor
Experimental: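 Pooled E. coli donor-specificity screen for the IS621 bridge recombinase. Each library member carries a reprogrammed 11-nt donor and a full-length LE bridge RNA expressed in cis from the natural promoter, with a paired donor-binding loop (8-nt LDG + 4-nt RDG) and a target-binding loop fixed to T5. It is co-electroporated with a T5 target plasmid; recombinase is induced with 0.07 mM IPTG and recombinants are selected on kanamycin. UMIs are counted as CPM, averaged over two biological replicates and corrected by the unselected control. Molecule = full bridge RNA written as DNA, built from the T5 scaffold: LDG = donor specificity nt 1-8, RDG = reverse complement of nt 8-11.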
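Note: IS621 bridge recombinase in Escherichia coli cells against a fixed T5 target plasmid.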

“AATGTAGCATGGACCGGTTTTCCCGGTAATCCGTATTTGCT (site AATGTAACTAG)” and “AATGTAGCATGGACCGGTTTTCCCGGTAATCCGTATTTGCT (site AATGTACCTAG)” are the same in “recombinant UMI read abundance (log10)” value: 0 for the first, 0 for the second.

First: AATGTAGCATGGACCGGTTTTCCCGGTAATCCGTATTTGCT (site AATGTAGCTAG)
Second: AATGTAGCATGGACCGGTTTTCCCGGTAATCCGTATTTGCT (site AATGTATCTAG)
The “recombinant UMI read abundance (log10)” value of the first is higher: 1.55 for the first, 0.516 for the second.

Compared with “AATGTATCATGGACCGGTTTTCCCGGTAATCCGTATTTGAC (site AATGTATCTGT)”, “AATGTATCATGGACCGGTTTTCCCGGTAATCCGTATTTGAC (site AATGTCTCTGT)” is lower in “recombinant UMI read abundance (log10)” value: 3.11 for the first, 0 for the second.

“AATGTATCATGGACCGGTTTTCCCGGTAATCCGTATTTGAC (site AATGTGTCTGT)” and “AATGTATCATGGACCGGTTTTCCCGGTAATCCGTATTTGAC (site AATGTTTCTGT)” are the same in “recombinant UMI read abundance (log10)” value: 0 for the first, 0 for the second.

First: AATGTCGCATGGACCGGTTTTCCCGGTAATCCGTATTTGGT (site AATGTCGCTAC)
Second: AATGTGCCATGGACCGGTTTTCCCGGTAATCCGTATTTGAC (site AATGTGACTGT)
The “recombinant UMI read abundance (log10)” value of the first is higher: 1.19 for the first, 0 for the second.

“AATGTGCCATGGACCGGTTTTCCCGGTAATCCGTATTTGAC (site AATGTGCCTGT)” and “AATGTGCCATGGACCGGTTTTCCCGGTAATCCGTATTTGAC (site AATGTGGCTGT)” are the same in “recombinant UMI read abundance (log10)” value: 0 for the first, 0 for the second.

“AATGTGCCATGGACCGGTTTTCCCGGTAATCCGTATTTGAC (site AATGTGTCTGT)” and “AATGTGCCATGGACCGGTTTTCCCGGTAATCCGTATTTGCT (site AATGTGCCTAG)” are within 0.2 log units of each other in “recombinant UMI read abundance (log10)” value: 0 for the first, 0.0116 for the second.

“AATGTGTCATGGACCGGTTTTCCCGGTAATCCGTATTTGCC (site AATGTGTCTGA)” and “AATGTGTCATGGACCGGTTTTCCCGGTAATCCGTATTTGCC (site AATGTGTCTGC)” are the same in “recombinant UMI read abundance (log10)” value: 0 for the first, 0 for the second.

First: AATGTGTCATGGACCGGTTTTCCCGGTAATCCGTATTTGCC (site AATGTGTCTGG)
Second: AATGTGTCATGGACCGGTTTTCCCGGTAATCCGTATTTGCC (site AATGTGTCTGT)
The “recombinant UMI read abundance (log10)” value of the first is higher: 2.81 for the first, 2.16 for the second.

“AATGTTACATGGACCGGTTTTCCCGGTAATCCGTATTTGCT (site AATGTAACTAG)” and “AATGTTACATGGACCGGTTTTCCCGGTAATCCGTATTTGCT (site AATGTCACTAG)” are within 0.2 log units of each other in “recombinant UMI read abundance (log10)” value: 1.05 for the first, 1.13 for the second.

Going from “AATGTTACATGGACCGGTTTTCCCGGTAATCCGTATTTGCT (site AATGTGACTAG)” to “AATGTTACATGGACCGGTTTTCCCGGTAATCCGTATTTGCT (site AATGTTACTAG)”, the “recombinant UMI read abundance (log10)” value rises from 0.00476 to 2.3.

Compared with “AATTAAGCATGGACCGGTTTTCCCGGTAATCCGTATTTGGA (site AATTAAGCTTC)”, “AATTAAGCATGGACCGGTTTTCCCGGTAATCCGTATTTGGA (site AATTACGCTTC)” is lower in “recombinant UMI read abundance (log10)” value: 0.894 for the first, 0.395 for the second.

First: AATTAAGCATGGACCGGTTTTCCCGGTAATCCGTATTTGGA (site AATTAGGCTTC)
Second: AATTAAGCATGGACCGGTTTTCCCGGTAATCCGTATTTGGA (site AATTATGCTTC)
The “recombinant UMI read abundance (log10)” value of the first is higher: 0.648 for the first, 0.412 for the second.

Compared with “AATTATCCATGGACCGGTTTTCCCGGTAATCCGTATTTGCT (site AATTATCCTAG)”, “AATTATCCATGGACCGGTTTTCCCGGTAATCCGTATTTGCT (site CATTATCCTAG)” is lower in “recombinant UMI read abundance (log10)” value: 0.673 for the first, 0.041 for the second.

“AATTATCCATGGACCGGTTTTCCCGGTAATCCGTATTTGCT (site GATTATCCTAG)” and “AATTATCCATGGACCGGTTTTCCCGGTAATCCGTATTTGCT (site TATTATCCTAG)” are within 0.2 log units of each other in “recombinant UMI read abundance (log10)” value: 0.232 for the first, 0.201 for the second.

“AATTATGCATGGACCGGTTTTCCCGGTAATCCGTATTTGGC (site AATTATGCTAC)” and “AATTATGCATGGACCGGTTTTCCCGGTAATCCGTATTTGGC (site AATTATGCTCC)” are within 0.2 log units of each other in “recombinant UMI read abundance (log10)” value: 0.00687 for the first, 0.0199 for the second.

Compared with “AATTATGCATGGACCGGTTTTCCCGGTAATCCGTATTTGGC (site AATTATGCTGC)”, “AATTATGCATGGACCGGTTTTCCCGGTAATCCGTATTTGGC (site AATTATGCTTC)” is lower in “recombinant UMI read abundance (log10)” value: 1.33 for the first, 0.332 for the second.

First: AATTCTTCATGGACCGGTTTTCCCGGTAATCCGTATTTGTA (site AATTCTTCTTA)
Second: AATTTACCATGGACCGGTTTTCCCGGTAATCCGTATTTGGC (site AATTTACCTGC)
The “recombinant UMI read abundance (log10)” value of the first is higher: 1.04 for the first, 0 for the second.

“ACAAAGACATGGACCGGTTTTCCCGGTAATCCGTATTTGAG (site ACAAAGACTCT)” and “ACAAGTTCATGGACCGGTTTTCCCGGTAATCCGTATTTGTG (site ACAAGTTCTCA)” are within 0.2 log units of each other in “recombinant UMI read abundance (log10)” value: 2.49 for the first, 2.42 for the second.

Going from “ACAATAACATGGACCGGTTTTCCCGGTAATCCGTATTTGCA (site ACAATAACTTG)” to “ACAATAACATGGACCGGTTTTCCCGGTAATCCGTATTTGCA (site ACAGTATCTTG)”, the “recombinant UMI read abundance (log10)” value falls from 2.65 to 1.03.

Going from “ACAATATCATGGACCGGTTTTCCCGGTAATCCGTATTTGGA (site ACAATATCTTC)” to “ACAATATCATGGACCGGTTTTCCCGGTAATCCGTATTTGGA (site ACAGTATCTTG)”, the “recombinant UMI read abundance (log10)” value falls from 2.07 to 0.

First: ACACACCCATGGACCGGTTTTCCCGGTAATCCGTATTTGAC (site ACACAACCTGT)
Second: ACACACCCATGGACCGGTTTTCCCGGTAATCCGTATTTGAC (site ACACACCCTGT)
The “recombinant UMI read abundance (log10)” value of the first is lower: 0 for the first, 0.957 for the second.

First: ACACACCCATGGACCGGTTTTCCCGGTAATCCGTATTTGAC (site ACACAGCCTGT)
Second: ACACACCCATGGACCGGTTTTCCCGGTAATCCGTATTTGAC (site ACACATCCTGT)
The “recombinant UMI read abundance (log10)” value of the first is lower: 0 for the first, 0.471 for the second.

First: ACACATACATGGACCGGTTTTCCCGGTAATCCGTATTTGAC (site ACACATACTGT)
Second: ACACATACATGGACCGGTTTTCCCGGTAATCCGTATTTGAC (site ACACATCCTGT)
The “recombinant UMI read abundance (log10)” value of the first is higher: 2.71 for the first, 0 for the second.

Compared with “ACACATACATGGACCGGTTTTCCCGGTAATCCGTATTTGAC (site ACACATGCTGT)”, “ACACATACATGGACCGGTTTTCCCGGTAATCCGTATTTGAC (site ACACATTCTGT)” is lower in “recombinant UMI read abundance (log10)” value: 1.74 for the first, 0.554 for the second.

First: ACACATCCATGGACCGGTTTTCCCGGTAATCCGTATTTGCC (site ACACATCCTGA)
Second: ACACATCCATGGACCGGTTTTCCCGGTAATCCGTATTTGCC (site ACACATCCTGC)
The “recombinant UMI read abundance (log10)” value of the first is higher: 1.25 for the first, 0 for the second.
